The results in this text go back to ChEMBL document CHEMBL5316350, “Novel Pyrido[2',1':2,3]imidazo[4,5-c]quinoline Derivative Selectively Poisons Leishmania donovani Bisubunit Topoisomerase 1 to Inhibit the Antimony-Resistant Leishmania Infection in Vivo” (J Med Chem, 2023).

The source made the active and inactive calls. No cut-off for these calls is given here.

The subject of experiment [1] is Leishmania donovani. The experiment is described as follows: Antileishmanial activity in Leishmania donovani Ag83 promastigotes assessed as persistent Top1cc-induced DNA breakdown by measuring TUNEL positive cells treated for 6 to 12 hrs followed by compound removal measured after 6 to 12 hrs by confocal microscopic analysis relative to camptothecin. It is filed as functional, organism-based. Conditions: time 6-12 hrs.

The target of experiment [2] is T1, DNA topoisomerase I (Leishmania donovani (strain BPK282A1)) (UniProt E9BRC0).
T1 sequence (whole entry): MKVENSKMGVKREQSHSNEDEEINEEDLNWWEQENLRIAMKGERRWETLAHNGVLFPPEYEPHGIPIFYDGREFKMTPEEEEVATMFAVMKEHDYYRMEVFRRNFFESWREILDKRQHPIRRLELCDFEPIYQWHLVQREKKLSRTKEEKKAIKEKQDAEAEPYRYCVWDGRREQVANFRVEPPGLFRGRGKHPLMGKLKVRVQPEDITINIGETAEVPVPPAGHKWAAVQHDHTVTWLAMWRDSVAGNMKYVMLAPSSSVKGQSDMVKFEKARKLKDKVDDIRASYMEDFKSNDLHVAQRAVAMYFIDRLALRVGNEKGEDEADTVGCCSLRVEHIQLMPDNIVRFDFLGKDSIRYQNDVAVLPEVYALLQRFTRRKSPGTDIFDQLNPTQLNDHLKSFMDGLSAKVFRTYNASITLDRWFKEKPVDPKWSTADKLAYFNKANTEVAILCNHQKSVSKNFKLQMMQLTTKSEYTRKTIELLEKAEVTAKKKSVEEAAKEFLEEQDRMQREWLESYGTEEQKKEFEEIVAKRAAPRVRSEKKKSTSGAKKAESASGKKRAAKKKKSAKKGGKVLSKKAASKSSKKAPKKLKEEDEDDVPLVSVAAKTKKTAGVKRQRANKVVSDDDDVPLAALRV
Put plainly: Binding affinity to antimony resistant Leishmania donovani BHU575 promastigotes recombinant topoisomerase I assessed as fold change in stabilization of cleavage complex at 5 to 50 uM measured after 30 mins relative to camptothecin. As to conditions: dose 5-50 µM.

The target of experiment [3] is T1, DNA topoisomerase I (Leishmania donovani (strain BPK282A1)). Put plainly: Inhibition of Leishmania donovani topoisomerase I assessed as DNA intercalation using pBluscript (SK+) DNA as substrate at 20 to 200 uM incubated for 15 mins ethidium bromide staining based UV analysis. As to conditions: dose 20-200 µM.
In experiment [4] the test system is Leishmania donovani. The experiment is described as follows: Induction of cell cycle arrest in antimony resistant Leishmania donovani BHU575 promastigotes assessed as decrease in accumulation of cells in S phase at 5 uM measured after 6 hrs by PI staining based flow cytometry (reference value: 9.8%). Format: functional. Details: scale not given: the % may be the effect or the level left.

In experiment [5] the test system is Leishmania donovani. Put plainly: Antileishmanial activity against Leishmania donovani Ag83 promastigotes infected in BALB/c mouse assessed as reduction of amastigote burden by measuring parasite count in blood treated after 3 weeks of infection at 5 to 10 mg/kg, ip twice a week for 3 weeks by qPCR based kineto-plastid DNA. Format: functional, organism-based. Conditions: dose 5-10 mg/kg.

Experiment [6] concerns Leishmania donovani. The experiment is described as follows: Reversal of Top1cc-induced DNA breakdown in Leishmania donovani Ag83 promastigotes by measuring TUNEL positive cells treated for 6 to 12 hrs followed by compound removal measured after 6 to 12 hrs by confocal microscopic analysis relative to camptothecin. Format: functional, organism-based. As to conditions: time 6-12 hrs.

Experiment [7] has as its system Leishmania donovani. Put plainly: Antileishmanial activity against antimony resistant Leishmania donovani BHU575 promastigotes infected in BALB/c mouse assessed as reduction of macrophage at 10 uM measured after 96 hrs infection by propidium iodide staining analysis relative to control. It is filed as functional. Details: scale not given: the % may be the effect or the level left.

The subject of experiment [8] is Leishmania donovani. The experiment is described as follows: Antileishmanial activity against antimony resistant Leishmania donovani BHU575 promastigotes infected in BALB/c mouse assessed as reduction of amastigote burden in spleen treated after 3 weeks of infection at 5 to 10 mg/kg, ip twice a week for 3 weeks by Giemsa staining stamp-smear based limiting dilution assay. Format: functional, organism-based. As to conditions: dose 5-10 mg/kg.

Experiment [9] relates to Leishmania donovani. The experiment is described as follows: Antileishmanial activity against antimony resistant Leishmania donovani BHU575 promastigotes infected in BALB/c mouse assessed as reduction of amastigote burden by measuring parasite count in liver treated after 3 weeks of infection at 5 to 10 mg/kg, ip twice a week for 3 weeks by qPCR based kineto-plastid DNA. Format: functional, organism-based. As to conditions: dose 5-10 mg/kg.

The test system of experiment [10] is MCF7. Put plainly: Induction of apoptosis in human MCF7 cells measured at 5 uM upto 24 hrs by Annexin V-FITC/PI staining based flow cytometric analysis. It is filed as functional, cell-based. A general note: Flow cytometry measures light scatter and fluorescence of single cells or particles in a stream.
Experiment [11] has as its system Leishmania donovani. The experiment is described as follows: Induction of cell cycle arrest in Leishmania donovani Ag83 promastigotes assessed as decrease in accumulation of cells in G0/G1 phase at 5 uM measured after 6 hrs by PI staining based flow cytometry (reference value: 65.1%). It is filed as functional. Details: scale not given: the % may be the effect or the level left.

For experiment [12], the system named is Leishmania donovani. Put plainly: Antileishmanial activity against Leishmania donovani Ag83 promastigotes infected in BALB/c mouse model of visceral leishmaniasis assessed as fold change in T-helper type 1 immunological evoke response in splenocytes by measuring decrease in TGF-beta level treated after 3 weeks of infection at 5 to 10 mg/kg, ip twice a week for 3 weeks by RT-PCR analysis. It is filed as functional. As to conditions: dose 5-10 mg/kg.

Experiment [13] relates to Leishmania donovani. Put plainly: Induction of apoptosis in Leishmania donovani Ag83 promastigotes assessed as early apoptotic cells measured at 5 uM after 6 hrs by Annexin V-FITC/PI staining based flow cytometric analysis (reference value: 0.00%). Format: functional.
Experiment [14] has as its system Leishmania donovani. Put plainly: Antileishmanial activity against Leishmania donovani Ag83 promastigotes infected in BALB/c mouse assessed as reduction of amastigote burden by measuring parasite count in liver treated after 3 weeks of infection at 5 to 10 mg/kg, ip twice a week for 3 weeks by qPCR based kineto-plastid DNA. Format: functional, organism-based. As to conditions: dose 5-10 mg/kg. For orientation: Real-time PCR tracks product formation cycle by cycle.

For experiment [15], the system named is Leishmania donovani. Put plainly: Induction of cell cycle arrest in Leishmania donovani Ag83 promastigotes assessed as decrease in accumulation of cells in S phase at 5 uM measured after 12 hrs by PI staining based flow cytometry (reference value: 18.1%). Format: functional. On the set-up: scale not given: the % may be the effect or the level left.
The test system of experiment [16] is Leishmania donovani. Put plainly: Stabilization of Leishmania donovani promastigotes Top1-DNA complex assessed as formation of SDS-KCl precipitable complex incubated for 110 mins by anti-BrdU staining based spectrophotometric analysis. (In general: Dividing cells build labelled thymidine or BrdU into new DNA.)
Experiment [17] relates to Leishmania donovani. Put plainly: Induction of cell cycle arrest in antimony resistant Leishmania donovani BHU575 promastigotes assessed as decrease in accumulation of cells in G0/G1 phase at 5 uM measured after 12 hrs by PI staining based flow cytometry (reference value: 80.7%). It is filed as functional. Details: scale not given: the % may be the effect or the level left.

Experiment [18] relates to Leishmania donovani. The experiment is described as follows: Induction of apoptosis in Leishmania donovani Ag83 promastigotes assessed as necrotic cells measured at 5 uM after 6 hrs by Annexin V-FITC/PI staining based flow cytometric analysis (reference value: 0.5%). Format: functional.
The test system of experiment [19] is Leishmania donovani. Put plainly: Antileishmanial activity against antimony resistant Leishmania donovani BHU575 amastigotes infected in BALB/c mouse macrophage assessed as cell viability measured after 48 hrs infection by propidium iodide staining analysis relative to control. Format: functional, organism-based. As to conditions: BHU575, 48 h.
Experiment [20] concerns Leishmania donovani. The experiment is described as follows: Induction of apoptosis in Leishmania donovani Ag83 promastigotes assessed as late apoptotic cells measured at 5 uM after 24 hrs by Annexin V-FITC/PI staining based flow cytometric analysis (reference value: 0.1%). It is filed as functional.
The target in experiment [21] is T1, DNA topoisomerase I (Leishmania donovani (strain BPK282A1)). The experiment is described as follows: Inhibition of Leishmania donovani recombinant Top1 preincubated with compound for 5 mins followed by plasmid DNA addition at 1 to 10 uM measured after 30 mins. As to conditions: dose 1-10 µM.
The test system of experiment [22] is Leishmania donovani. The experiment is described as follows: Antileishmanial activity against Leishmania donovani Ag83 promastigotes assessed as cell viability by MTT assay. It is filed as functional, organism-based.
Experiment [23] has as its system MCF7. The experiment is described as follows: Induction of cell cycle arrest in human MCF7 cells measured at 5 uM upto 24 hrs by PI staining based flow cytometry. It is filed as functional.

What is called EC50 is the concentration giving half of the maximal effect. On to `COc1cc(-c2nc3ccccc3c3nc4ccccn4c23)cc(OC)c1OC`, for which the result in the experiment with Leishmania donovani [1], in the experiment on Leishmania donovani [5], in the experiment with Leishmania donovani [8], in the experiment on Leishmania donovani [9], with Leishmania donovani [14] and in the experiment with Leishmania donovani [16] was Active. For the same compound, the fold change (FC) in experiment [2] stood at 5; with Leishmania donovani [12], 2. Further, the inhibition entry in [3] and in experiment [21] was “inactive” in each case. Also, the Activity is on record as 24.5% in the experiment with Leishmania donovani [4]; 90% in the experiment on Leishmania donovani [7]; 55.3% in the experiment with Leishmania donovani [11]; 18.7% in the experiment on Leishmania donovani [13]; 43.1% in the experiment with Leishmania donovani [15]; 46% with Leishmania donovani [17]. For the same compound, the Activity in the experiment with Leishmania donovani [18] is recorded as 23.9%; in the experiment on Leishmania donovani [20], 70.6%. Also, the outcome in the experiment on Leishmania donovani [6], in the experiment with MCF7 [10] and in the experiment with MCF7 [23] was inactive. The EC50 with Leishmania donovani [19] came out at 7.06 µM; in the experiment with Leishmania donovani [22] it was 2.31 µM.
